{"source": "patent US20040063662A1", "about": "“Selenophene anti-tumor agents” (priority 1996, published 2004)", "key": {"IGROV1": {"test_system": "IGROV1", "experiment": "NCI human tumor cell panel: IGROV1 (Ovarian Cancer)", "type": "cell-based", "conditions": "IGROV-1, IGROV1, Ovarian Cancer"}, "RXF-393": {"test_system": "RXF-393", "experiment": "NCI human tumor cell panel: RXF-393 (Renal Cancer)", "type": "cell-based", "conditions": "RXF-393, Renal Cancer"}, "A549/ATCC": {"test_system": "A549/ATCC", "experiment": "NCI human tumor cell panel: A549/ATCC (Non-Small Cell Lung Cancer)", "type": "cell-based", "conditions": "Non-Small Cell Lung Cancer"}, "HS 578T": {"test_system": "HS 578T", "experiment": "NCI human tumor cell panel: HS 578T (Breast Cancer)", "type": "cell-based", "conditions": "Breast Cancer"}, "CCRF-CEM": {"test_system": "CCRF-CEM", "experiment": "NCI human tumor cell panel: CCRF-CEM (Leukemia)", "type": "cell-based", "conditions": "Leukemia"}, "T-47D": {"test_system": "T-47D", "experiment": "NCI human tumor cell panel: T-47D (Breast Cancer)", "type": "cell-based", "conditions": "T47D, Breast Cancer"}, "SK-OV-3": {"test_system": "SK-OV-3", "experiment": "NCI human tumor cell panel: SK-OV-3 (Ovarian Cancer)", "type": "cell-based", "conditions": "SK-OV-3, Ovarian Cancer"}, "786-0": {"test_system": "786-0", "experiment": "NCI human tumor cell panel: 786-0 (Renal Cancer)", "type": "cell-based", "conditions": "786-0, Renal Cancer"}, "NCI-H226": {"test_system": "NCI-H226", "experiment": "NCI human tumor cell panel: NCI-H226 (Non-Small Cell Lung Cancer)", "type": "cell-based", "conditions": "NCI-H226, Non-Small Cell Lung Cancer"}, "BT-549": {"test_system": "BT-549", "experiment": "NCI human tumor cell panel: BT-549 (Breast Cancer)", "type": "cell-based", "conditions": "BT-549, Breast Cancer"}, "SNB-19": {"test_system": "SNB-19", "experiment": "NCI human tumor cell panel: SNB-19 (CNS Cancer)", "type": "cell-based", "conditions": "SNB-19, CNS Cancer"}, "OVCAR-5": {"test_system": "OVCAR-5", "experiment": "NCI human tumor cell panel: OVCAR-5 (Ovarian Cancer)", "type": "cell-based", "conditions": "OVCAR-5, Ovarian Cancer"}, "NCI-H23": {"test_system": "NCI-H23", "experiment": "NCI human tumor cell panel: NCI-H23 (Non-Small Cell Lung Cancer)", "type": "cell-based", "conditions": "NCI-H23, Non-Small Cell Lung Cancer"}, "SF-268": {"test_system": "SF-268", "experiment": "NCI human tumor cell panel: SF-268 (CNS Cancer)", "type": "cell-based", "conditions": "SF-268, CNS Cancer"}, "SK-MEL-2": {"test_system": "SK-MEL-2", "experiment": "NCI human tumor cell panel: SK-MEL-2 (Melanoma)", "type": "cell-based", "conditions": "SK-MEL-2, Melanoma"}, "SK-MEL-28": {"test_system": "SK-MEL-28", "experiment": "NCI human tumor cell panel: SK-MEL-28 (Melanoma)", "type": "cell-based", "conditions": "SK-MEL-28, Melanoma"}, "[1]": {"test_system": "panel of sixty different human tumor cell lines", "experiment": "NCI human tumor cell panel: whole panel (mean graph summary)"}, "PC-3": {"test_system": "PC-3", "experiment": "NCI human tumor cell panel: PC-3 (Prostate Cancer)", "type": "cell-based", "conditions": "PC-3, Prostate Cancer"}, "NCI-H522": {"test_system": "NCI-H522", "experiment": "NCI human tumor cell panel: NCI-H522 (Non-Small Cell Lung Cancer)"}, "SN12C": {"test_system": "SN12C", "experiment": "NCI human tumor cell panel: SN12C (Renal Cancer)", "type": "cell-based", "conditions": "Renal Cancer"}, "MDA-MB-231/ATCC": {"test_system": "MDA-MB-231/ATCC", "experiment": "NCI human tumor cell panel: MDA-MB-231/ATCC (Breast Cancer)", "type": "cell-based", "conditions": "Homo sapiens, MDA-MB-231, MDA-MB-231/ATCC, Breast Cancer"}, "MCF7/ADR-RES": {"test_system": "MCF7/ADR-RES", "experiment": "NCI human tumor cell panel: MCF7/ADR-RES (Breast Cancer)", "type": "cell-based", "conditions": "Breast Cancer"}, "A498": {"test_system": "A498", "experiment": "NCI human tumor cell panel: A498 (Renal Cancer)", "type": "cell-based", "conditions": "A498, Renal Cancer"}, "TK-10": {"test_system": "TK-10", "experiment": "NCI human tumor cell panel: TK-10 (Renal Cancer)", "type": "cell-based", "conditions": "TK-10, Renal Cancer"}, "HL-60(TB)": {"test_system": "HL-60(TB)", "experiment": "NCI human tumor cell panel: HL-60(TB) (Leukemia)", "type": "cell-based", "conditions": "Leukemia"}, "K-562": {"test_system": "K-562", "experiment": "NCI human tumor cell panel: K-562 (Leukemia)", "type": "cell-based", "conditions": "K562, K-562, Leukemia"}, "SK-MEL-5": {"test_system": "SK-MEL-5", "experiment": "NCI human tumor cell panel: SK-MEL-5 (Melanoma)", "type": "cell-based", "conditions": "SK-MEL-5, Melanoma"}, "[2]": {"conditions": "read-out: Log10 GI50 (converted)"}, "[3]": {"conditions": "read-out: Log10 TGI (converted)"}}}
{"smiles": "OCc1ccc(-c2ccc(-c3cccs3)[se]2)s1", "note": "[NSC 675344]", "values": [{"measurement": "GI50", "setting": "IGROV1; [2]", "result": 0.0123, "unit": "µM"}, {"measurement": "IC (TGI)", "setting": "IGROV1; [3]", "result": 0.0427, "unit": "µM"}, {"measurement": "GI50", "setting": "RXF-393; [2]", "result": 15.8, "unit": "µM"}, {"measurement": "IC (TGI)", "setting": "RXF-393; [3]", "result": 52.5, "unit": "µM"}, {"measurement": "GI50", "setting": "A549/ATCC; [2]", "result": 45.7, "unit": "µM"}, {"measurement": "IC (TGI)", "setting": "A549/ATCC; [3]", "result": "> 100", "unit": "µM"}, {"measurement": "GI50", "setting": "HS 578T; [2]", "result": 53.7, "unit": "µM"}, {"measurement": "IC (TGI)", "setting": "HS 578T; [3]", "result": "> 100", "unit": "µM"}, {"measurement": "GI50", "setting": "CCRF-CEM; [2]", "result": "> 100", "unit": "µM"}, {"measurement": "IC (TGI)", "setting": "CCRF-CEM; [3]", "result": "> 100", "unit": "µM"}, {"measurement": "GI50", "setting": "T-47D; [2]", "result": 0.617, "unit": "µM"}, {"measurement": "IC (TGI)", "setting": "T-47D; [3]", "result": "> 100", "unit": "µM"}, {"measurement": "GI50", "setting": "SK-OV-3; [2]", "result": 16.6, "unit": "µM"}, {"measurement": "IC (TGI)", "setting": "SK-OV-3; [3]", "result": "> 100", "unit": "µM"}, {"measurement": "GI50", "setting": "786-0; [2]", "result": 12.3, "unit": "µM"}, {"measurement": "IC (TGI)", "setting": "786-0; [3]", "result": 67.6, "unit": "µM"}, {"measurement": "GI50", "setting": "NCI-H226; [2]", "result": "< 0.01", "unit": "µM"}, {"measurement": "IC (TGI)", "setting": "NCI-H226; [3]", "result": "< 0.01", "unit": "µM"}, {"measurement": "GI50", "setting": "BT-549; [2]", "result": 42.7, "unit": "µM"}, {"measurement": "IC (TGI)", "setting": "BT-549; [3]", "result": "> 100", "unit": "µM"}, {"measurement": "GI50", "setting": "SNB-19; [2]", "result": 29.5, "unit": "µM"}, {"measurement": "IC (TGI)", "setting": "SNB-19; [3]", "result": "> 100", "unit": "µM"}, {"measurement": "GI50", "setting": "OVCAR-5; [2]", "result": "< 0.01", "unit": "µM"}, {"measurement": "IC (TGI)", "setting": "OVCAR-5; [3]", "result": 0.0871, "unit": "µM"}, {"measurement": "GI50", "setting": "NCI-H23; [2]", "result": 20.4, "unit": "µM"}, {"measurement": "IC (TGI)", "setting": "NCI-H23; [3]", "result": "> 100", "unit": "µM"}, {"measurement": "GI50", "setting": "SF-268; [2]", "result": 23.4, "unit": "µM"}, {"measurement": "IC (TGI)", "setting": "SF-268; [3]", "result": "> 100", "unit": "µM"}, {"measurement": "GI50", "setting": "SK-MEL-2; [2]", "result": "> 100", "unit": "µM"}, {"measurement": "IC (TGI)", "setting": "SK-MEL-2; [3]", "result": "> 100", "unit": "µM"}, {"measurement": "GI50", "setting": "SK-MEL-28; [2]", "result": "> 100", "unit": "µM"}, {"measurement": "IC (TGI)", "setting": "SK-MEL-28; [3]", "result": "> 100", "unit": "µM"}, {"measurement": "GI50", "setting": "[1]; Homo sapiens, read-out: Log10 GI50, cell line not given (converted)", "result": 0.0871, "unit": "µM"}, {"measurement": "CC50", "setting": "[1]; Homo sapiens, read-out: Log10 LC50, cell line not given (converted)", "result": "> 100", "unit": "µM"}, {"measurement": "Log10 TGI", "setting": "[1]; cell line not given", "result": ">−4.00"}, {"measurement": "GI50", "setting": "PC-3; [2]", "result": "> 100", "unit": "µM"}, {"measurement": "IC (TGI)", "setting": "PC-3; [3]", "result": "> 100", "unit": "µM"}, {"measurement": "GI50", "setting": "NCI-H522; NCI-H522, read-out: Log10 GI50 (converted)", "result": "> 100", "unit": "µM"}, {"measurement": "IC (TGI)", "setting": "NCI-H522; NCI-H522, read-out: Log10 TGI", "result": "> 100", "unit": "µM"}, {"measurement": "GI50", "setting": "SN12C; [2]", "result": "> 100", "unit": "µM"}, {"measurement": "IC (TGI)", "setting": "SN12C; [3]", "result": "> 100", "unit": "µM"}, {"measurement": "GI50", "setting": "MDA-MB-231/ATCC; [2]", "result": 19.1, "unit": "µM"}, {"measurement": "IC (TGI)", "setting": "MDA-MB-231/ATCC; [3]", "result": "> 100", "unit": "µM"}, {"measurement": "GI50", "setting": "MCF7/ADR-RES; [2]", "result": "> 100", "unit": "µM"}, {"measurement": "IC (TGI)", "setting": "MCF7/ADR-RES; [3]", "result": "> 100", "unit": "µM"}, {"measurement": "GI50", "setting": "A498; [2]", "result": "< 0.01", "unit": "µM"}, {"measurement": "IC (TGI)", "setting": "A498; [3]", "result": 0.0182, "unit": "µM"}, {"measurement": "GI50", "setting": "TK-10; [2]", "result": "< 0.01", "unit": "µM"}, {"measurement": "IC (TGI)", "setting": "TK-10; [3]", "result": 0.0501, "unit": "µM"}, {"measurement": "GI50", "setting": "HL-60(TB); [2]", "result": "> 100", "unit": "µM"}, {"measurement": "IC (TGI)", "setting": "HL-60(TB); read-out: Log10 TGI", "result": "> 100", "unit": "µM"}, {"measurement": "GI50", "setting": "K-562; [2]", "result": 0.0437, "unit": "µM"}, {"measurement": "IC (TGI)", "setting": "K-562; [3]", "result": "> 100", "unit": "µM"}, {"measurement": "GI50", "setting": "SK-MEL-5; [2]", "result": "> 100", "unit": "µM"}, {"measurement": "IC (TGI)", "setting": "SK-MEL-5; [3]", "result": "> 100", "unit": "µM"}]}
